Laboratory results reported in ChEMBL document CHEMBL1151779, “Exploration of a fundamental substituent effect of alpha-ketoheterocycle enzyme inhibitors: Potent and selective inhibitors of fatty acid amide hydrolase” (Bioorg Med Chem Lett, 2008).

Key:
[1] = molecular target: T1, Fatty-acid amide hydrolase 1 (Rattus norvegicus, UniProt P97612); assay: Inhibition of rat FAAH
T1 sequence (P97612 whole entry): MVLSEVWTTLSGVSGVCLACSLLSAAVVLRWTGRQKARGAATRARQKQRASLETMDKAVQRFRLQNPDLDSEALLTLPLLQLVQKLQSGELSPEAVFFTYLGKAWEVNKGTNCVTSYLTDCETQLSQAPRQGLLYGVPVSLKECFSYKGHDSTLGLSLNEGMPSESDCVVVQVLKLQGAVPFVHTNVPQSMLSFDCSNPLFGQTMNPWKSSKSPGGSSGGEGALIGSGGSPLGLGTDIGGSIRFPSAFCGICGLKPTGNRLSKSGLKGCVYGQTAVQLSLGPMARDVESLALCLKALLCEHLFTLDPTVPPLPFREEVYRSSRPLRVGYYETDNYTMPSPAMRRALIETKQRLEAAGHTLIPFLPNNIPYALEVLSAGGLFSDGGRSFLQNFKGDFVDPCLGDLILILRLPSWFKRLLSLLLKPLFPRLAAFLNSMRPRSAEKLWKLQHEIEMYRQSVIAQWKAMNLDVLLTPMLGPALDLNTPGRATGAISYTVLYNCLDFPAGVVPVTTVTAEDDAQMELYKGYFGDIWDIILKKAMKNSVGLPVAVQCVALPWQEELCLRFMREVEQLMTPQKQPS

Liver carboxylesterase 1 = molecular target: T2, Liver carboxylesterase 1 (Homo sapiens, UniProt P23141); assay: Inhibition of TGH
T2 sequence (P23141 whole entry): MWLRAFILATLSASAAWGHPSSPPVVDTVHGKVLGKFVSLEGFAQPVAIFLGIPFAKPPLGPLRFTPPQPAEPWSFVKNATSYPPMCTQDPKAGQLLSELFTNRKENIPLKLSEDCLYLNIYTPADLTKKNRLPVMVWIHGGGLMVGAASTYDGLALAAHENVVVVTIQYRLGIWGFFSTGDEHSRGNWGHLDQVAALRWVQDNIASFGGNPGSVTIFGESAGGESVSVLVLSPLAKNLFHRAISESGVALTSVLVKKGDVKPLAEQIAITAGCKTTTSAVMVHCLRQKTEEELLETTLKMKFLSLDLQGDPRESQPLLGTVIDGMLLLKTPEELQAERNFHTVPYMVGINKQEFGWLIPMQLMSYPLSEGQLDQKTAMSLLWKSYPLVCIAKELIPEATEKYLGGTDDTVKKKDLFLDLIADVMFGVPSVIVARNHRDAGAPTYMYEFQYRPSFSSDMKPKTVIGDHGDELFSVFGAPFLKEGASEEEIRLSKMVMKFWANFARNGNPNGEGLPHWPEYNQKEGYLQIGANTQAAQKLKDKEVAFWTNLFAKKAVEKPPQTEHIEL

[2] = Selectivity ratio of IC50 for KIAA1363 to IC50 for rat FAAH
[3] = Selectivity ratio of IC50 for TGH to IC50 for rat FAAH
[4] = molecular target: T3, Neutral cholesterol ester hydrolase 1 (Homo sapiens, UniProt Q6PIU2); assay: Inhibition of KIAA1363
T3 sequence (Q6PIU2 whole entry): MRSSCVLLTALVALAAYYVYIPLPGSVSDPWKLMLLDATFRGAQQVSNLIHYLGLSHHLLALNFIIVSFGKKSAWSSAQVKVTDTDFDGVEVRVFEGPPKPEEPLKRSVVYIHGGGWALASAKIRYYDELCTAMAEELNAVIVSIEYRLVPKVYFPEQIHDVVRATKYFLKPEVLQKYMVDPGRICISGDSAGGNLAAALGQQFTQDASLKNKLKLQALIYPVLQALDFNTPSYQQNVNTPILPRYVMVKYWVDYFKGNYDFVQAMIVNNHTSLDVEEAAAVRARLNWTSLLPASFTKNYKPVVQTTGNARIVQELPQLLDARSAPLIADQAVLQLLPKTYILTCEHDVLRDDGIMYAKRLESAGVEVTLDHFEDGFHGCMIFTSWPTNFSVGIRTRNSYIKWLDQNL

IC50 [1] [nM] | IC50 (Liver carboxylesterase 1) [nM] | Ratio IC50 [2] | Ratio IC50 [3] | IC50 [4] [nM] | SMILES
500 | 2500 | > 3000 | 5 | > 100000 | O=C(O)c1coc(C(=O)CCCCCCc2ccccc2)n1
400 | 60 | > 200 |  | 10000 | O=C(CCCCCCc1ccccc1)c1nc(C(F)(F)F)co1
30 | 10000 | 25 | 330 | > 100000 | O=C(CCCCCCc1ccccc1)c1nc(-c2ccccn2)co1
900 |  | > 100 | > 100 |  | O=C(O)c1cnc(C(=O)CCCCCCc2ccccc2)o1
70 |  | > 1400 | 3 |  | O=C(CCCCCCc1ccccc1)c1ncc(C(F)(F)F)o1
140 | 700 | 1500 | 5 | > 100000 | O=C(CCCCCCc1ccccc1)c1nc(-c2ccncc2)co1
20 | 30 | > 700 | 1.5 | 30000 | N#Cc1coc(C(=O)CCCCCCc2ccccc2)n1
